In patent publication US9499550B2 (BRISTOL-MYERS SQUIBB COMPANY, priority 2012, dated 2016) one finds EC50 data, which are given here for eleven compounds.

For test [1], the system named is HCV genotype 1a (H77 strain) replicon in HUH-7 cells. Put plainly: HCV replicon luciferase reporter assay, genotype 1a. The class given is cell-based. The following applies: Hepatitis C virus, Huh-7, 72 h, HCV genotype 1a replicon luciferase, 3 days incubation. In a few lines:
(§1)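 Replicon inhibition for both genotypes was measured as Renilla luciferase signal (EnduRen, 7.5 μM final, 2 h) after 3-day, 37° C exposure of replicon-bearing HUH-7 cells in 4% FCS DMEM, 0.5% DMSO. The 1b construct carries S1179I; the 1a H77 construct carries P1496L and S2204I. Twenty-point, 3-fold dilutions were fitted four-parametrically for EC50, and CC50 was taken from multiplexed Cell Titer-Blue.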
(Replicon systems follow genome replication, usually without infectious particles.)

The subject of test [2] is HCV genotype 1b (Con1) replicon in HUH-7 cells. Put plainly: HCV replicon luciferase reporter assay, genotype 1b. The class given is cell-based. The following applies: Hepatitis C virus, Huh-7, 72 h, HCV genotype 1b replicon luciferase, 3 days incubation. An outline of the steps: as §1

Like-named read-outs stand apart in the source and are kept apart here.

By EC50 is commonly meant the concentration giving half of the maximal effect. As to `C[C@@H]1CC/C=C\[C@@H]2C[C@@]2(C(=O)NS(=O)(=O)C2(C)CC2)NC(=O)[C@@H]2C[C@@H](Oc3nc4c(c5ccccc35)OCCC4)CN2C(=O)[C@@H](NC(=O)OC(C)(C)C(F)(F)F)[C@H](C)C1` [Compound 6022, 1,1,1-trifluoro-2-methylpropan-2-yl((2R,6S,7R,9R,13aS,14aR,16aS,Z)-2-((3,4-dihydro-2H-pyrano[3,2-c]isoquinolin-6-yl)oxy)-7,9-dimethyl-14a-(((1-methylcyclopropyl)sulfonyl)carbamoyl)-5,16-dioxo-1,2,3,5,6,7,8,9,10,11,13a,14,14a,15,16,16a-hexadecahydrocyclopropa[e]pyrrolo[1,2-a][1,4]diazacyclopentadecin-6-yl)carbamate], the EC50 in test [1] (read-out: LE_1a (EC50, range)) is less than 5.46 nM; in test [2] (read-out: LE_1b (EC50, range)) it was less than 5.46 nM.

As for `CC[C@@H]1C[C@@H](C)CC/C=C\[C@@H]2C[C@@]2(C(=O)NS(=O)(=O)C2(C)CC2)NC(=O)[C@@H]2C[C@@H](Oc3nc4c(c5ccccc35)OCCC4)CN2C(=O)[C@H]1NC(=O)OC(C)(C)C` [Compound 6023, tert-butyl ((2R,6S,7R,9S,13aS,14aR,16aS,Z)-2-((3,4-dihydro-2H-pyrano[3,2-c]isoquinolin-6-yl)oxy)-7-ethyl-9-methyl-14a-(((1-methylcyclopropyl)sulfonyl)carbamoyl)-5,16-dioxo-1,2,3,5,6,7,8,9,10,11,13a,14,14a,15,16,16a-hexadecahydrocyclopropa[e]pyrrolo[1,2-a][1,4]diazacyclopentadecin-6-yl)carbamate], the EC50 was 4.82 to 103 nM in test [1] (read-out: LE_1a (EC50, range)) and 4.82 to 103 nM in test [2] (read-out: LE_1b (EC50, range)).

On to `CC[C@@H]1C[C@H](C)CC/C=C\[C@@H]2C[C@@]2(C(=O)NS(=O)(=O)C2(C)CC2)NC(=O)[C@@H]2C[C@@H](Oc3nc4c(c5ccccc35)OCCC4)CN2C(=O)[C@H]1NC(=O)OC(C)(C)C` [Compound 6024, tert-butyl ((2R,6S,7R,9R,13aS,14aR,16aS,Z)-2-((3,4-dihydro-2H-pyrano[3,2-c]isoquinolin-6-yl)oxy)-7-ethyl-9-methyl-14a-(((1-methylcyclopropyl)sulfonyl)carbamoyl)-5,16-dioxo-1,2,3,5,6,7,8,9,10,11,13a,14,14a,15,16,16a-hexadecahydrocyclopropa[e]pyrrolo[1,2-a][1,4]diazacyclopentadecin-6-yl)carbamate], for which the concentration giving a half-maximal response (EC50) is less than 5.46 nM in test [1] (read-out: LE_1a (EC50, range)) and less than 5.46 nM in test [2] (read-out: LE_1b (EC50, range)).

As for `C[C@@H]1CC/C=C\[C@@H]2C[C@@]2(C(=O)NS(=O)(=O)C2(CF)CC2)NC(=O)[C@@H]2C[C@@H](Oc3nc4c(c5ccccc35)OCCC4)CN2C(=O)[C@@H](NC(=O)OC(C)(C)C)[C@H](C)C1` [Compound 6026, tert-butyl ((2R,6S,7R,9R,13aS,14aR,16aS,Z)-2-((3,4-dihydro-2H-pyrano[3,2-c]isoquinolin-6-yl)oxy)-14a-(((1-(fluoromethyl)cyclopropyl)sulfonyl)carbamoyl)-7,9-dimethyl-5,16-dioxo-1,2,3,5,6,7,8,9,10,11,13a,14,14a,15,16,16a-hexadecahydrocyclopropa[e]pyrrolo[1,2-a][1,4]diazacyclopentadecin-6-yl)carbamate], the concentration for a half-maximal effect (EC50) in test [1] (read-out: LE_1a (EC50)) is 1.13 nM; in test [1] (read-out: LE_1a (EC50, range)), less than 5.46 nM; in test [2] (read-out: LE_1b (EC50)), 0.7 nM; in test [2] (read-out: LE_1b (EC50, range)), less than 5.46 nM.

Regarding `CC[C@@H]1C[C@H](C)CC/C=C\[C@@H]2C[C@@]2(C(=O)NS(=O)(=O)C2(C)CC2)NC(=O)[C@@H]2C[C@@H](Oc3nc4c(c5ccccc35)OCCC4)CN2C(=O)C1NC(=O)OC(C)(C)C(F)(F)F` (stereo partly drawn) [Compound 6028, 1,1,1-trifluoro-2-methylpropan-2-yl((2R,6S,7R,9R,13aS,14aR,16aS,Z)-2-((3,4-dihydro-2H-pyrano[3,2-c]isoquinolin-6-yl)oxy)-7-ethyl-9-methyl-14a-(((1-methylcyclopropyl)sulfonyl)carbamoyl)-5,16-dioxo-1,2,3,5,6,7,8,9,10,11,13a,14,14a,15,16,16a-hexadecahydrocyclopropa[e]pyrrolo[1,2-a][1,4]diazacyclopentadecin-6-yl)carbamate], the concentration giving a half-maximal response (EC50) is less than 5.46 nM in test [1] (read-out: LE_1a (EC50, range)) and less than 5.46 nM in test [2] (read-out: LE_1b (EC50, range)).

Take `C[C@H]1CC/C=C\[C@@H]2C[C@@]2(C(=O)NS(=O)(=O)C2(CF)CC2)NC(=O)[C@@H]2C[C@@H](Oc3nc4c(c5ccccc35)OCCC4)CN2C(=O)[C@@H](NC(=O)OC(C)(C)C(F)(F)F)[C@H](C)C1` [Compound 6029, 1,1,1-trifluoro-2-methylpropan-2-yl((2R,6S,7R,9S,13aS,14aR,16aS,Z)-2-((3,4-dihydro-2H-pyrano[3,2-c]isoquinolin-6-yl)oxy)-14a-(((1-(fluoromethyl)cyclopropyl)sulfonyl)carbamoyl)-7,9-dimethyl-5,16-dioxo-1,2,3,5,6,7,8,9,10,11,13a,14,14a,15,16,16a-hexadecahydrocyclopropa[e]pyrrolo[1,2-a][1,4]diazacyclopentadecin-6-yl)carbamate]: the 50% effective concentration (EC50) in test [1] (read-out: LE_1a (EC50, range)) lay within 4.82 to 103 nM; in test [2] (read-out: LE_1b (EC50, range)), 4.82 to 103 nM.

As to `C[C@@H]1CC/C=C\[C@@H]2C[C@@]2(C(=O)NS(=O)(=O)C2(CF)CC2)NC(=O)[C@@H]2C[C@@H](Oc3nc4c(c5ccccc35)OCCC4)CN2C(=O)[C@@H](NC(=O)OC(C)(C)C(F)(F)F)[C@H](C)C1` [Compound 6030, 1,1,1-trifluoro-2-methylpropan-2-yl((2R,6S,7R,9R,13aS,14aR,16aS,Z)-2-((3,4-dihydro-2H-pyrano[3,2-c]isoquinolin-6-yl)oxy)-14a-(((1-(fluoromethyl)cyclopropyl)sulfonyl)carbamoyl)-7,9-dimethyl-5,16-dioxo-1,2,3,5,6,7,8,9,10,11,13a,14,14a,15,16,16a-hexadecahydrocyclopropa[e]pyrrolo[1,2-a][1,4]diazacyclopentadecin-6-yl)carbamate], the EC50 in test [1] (read-out: LE_1a (EC50)) is 1.43 nM; in test [1] (read-out: LE_1a (EC50, range)) it was less than 5.46 nM; in test [2] (read-out: LE_1b (EC50)), 0.81 nM; in test [2] (read-out: LE_1b (EC50, range)), less than 5.46 nM.

For the compound `C[C@H]1CC/C=C\[C@@H]2C[C@@]2(C(=O)NS(=O)(=O)C2(CF)CC2)NC(=O)[C@@H]2C[C@@H](Oc3nc4c(c5ccccc35)OCCC4)CN2C(=O)[C@@H](NC(=O)OC(C)(C)C(C)(F)F)[C@H](C)C1` [Compound 6031, 3,3-difluoro-2-methylbutan-2-yl((2R,6S,7R,9S,13aS,14aR,16aS,Z)-2-((3,4-dihydro-2H-pyrano[3,2-c]isoquinolin-6-yl)oxy)-14a-(((1-(fluoromethyl)cyclopropyl)sulfonyl)carbamoyl)-7,9-dimethyl-5,16-dioxo-1,2,3,5,6,7,8,9,10,11,13a,14,14a,15,16,16a-hexadecahydrocyclopropa[e]pyrrolo[1,2-a][1,4]diazacyclopentadecin-6-yl)carbamate], the EC50 lay in the range of 4.82 to 103 nM in test [1] (read-out: LE_1a (EC50, range)) and 4.82 to 103 nM in test [2] (read-out: LE_1b (EC50, range)).

Turning to `C[C@H]1CC/C=C\[C@@H]2C[C@@]2(C(=O)NS(=O)(=O)C2(C)CC2)NC(=O)[C@@H]2C[C@@H](Oc3nc4c(c5ccccc35)OCCC4)CN2C(=O)[C@@H](NC(=O)OC(C)(C)C(C)(F)F)[C@H](C)C1` [Compound 6033, 3,3-difluoro-2-methylbutan-2-yl((2R,6S,7R,9S,13aS,14aR,16aS,Z)-2-((3,4-dihydro-2H-pyrano[3,2-c]isoquinolin-6-yl)oxy)-7,9-dimethyl-14a-(((1-methylcyclopropyl)sulfonyl)carbamoyl)-5,16-dioxo-1,2,3,5,6,7,8,9,10,11,13a,14,14a,15,16,16a-hexadecahydrocyclopropa[e]pyrrolo[1,2-a][1,4]diazacyclopentadecin-6-yl)carbamate], the EC50 in test [1] (read-out: LE_1a (EC50)) was 10.7 nM; in test [1] (read-out: LE_1a (EC50, range)) it was 4.82 to 103 nM; in test [2] (read-out: LE_1b (EC50)), 4.38 nM; in test [2] (read-out: LE_1b (EC50, range)), less than 5.46 nM.

For `C[C@@H]1CC/C=C\[C@@H]2C[C@@]2(C(=O)NS(=O)(=O)C2(C)CC2)NC(=O)[C@@H]2C[C@@H](Oc3nc4c(c5ccccc35)OCCC4)CN2C(=O)[C@@H](NC(=O)OC(C)(C)C(C)(F)F)[C@H](C)C1` [Compound 6034, 3,3-difluoro-2-methylbutan-2-yl((2R,6S,7R,9R,13aS,14aR,16aS,Z)-2-((3,4-dihydro-2H-pyrano[3,2-c]isoquinolin-6-yl)oxy)-7,9-dimethyl-14a-(((1-methylcyclopropyl)sulfonyl)carbamoyl)-5,16-dioxo-1,2,3,5,6,7,8,9,10,11,13a,14,14a,15,16,16a-hexadecahydrocyclopropa[e]pyrrolo[1,2-a][1,4]diazacyclopentadecin-6-yl)carbamate], the 50% effective concentration (EC50) in test [1] (read-out: LE_1a (EC50, range)) was less than 5.46 nM; in test [2] (read-out: LE_1b (EC50, range)) it was less than 5.46 nM.

As for `COc1cc2ccccc2c(O[C@@H]2C[C@H]3C(=O)N[C@]4(C(=O)NS(=O)(=O)C5CC5)C[C@H]4/C=C\CC[C@@H](C)C[C@@H](C)[C@H](NC(=O)OC(C)(C)C(C)(F)F)C(=O)N3C2)n1` [Compound 6036, 3,3-difluoro-2-methylbutan-2-yl((2R,6S,7R,9R,13aS,14aR,16aS,Z)-14a-((cyclopropylsulfonyl)carbamoyl)-2-((3-methoxyisoquinolin-1-yl)oxy)-7,9-dimethyl-5,16-dioxo-1,2,3,5,6,7,8,9,10,11,13a,14,14a,15,16,16a-hexadecahydrocyclopropa[e]pyrrolo[1,2-a][1,4]diazacyclopentadecin-6-yl)carbamate], the EC50 in test [1] (read-out: LE_1a (EC50)) is 0.53 nM; in test [1] (read-out: LE_1a (EC50, range)), less than 5.46 nM; in test [2] (read-out: LE_1b (EC50)) it was 0.38 nM; in test [2] (read-out: LE_1b (EC50, range)) it was less than 5.46 nM.
